Patent US20150239889A1, “PYRAZOLOPYRIMIDINE COMPOUND” (MITSUBISHI TANABE PHARMA CORPORATION, priority 2012, published 2015)

Biological target: T1, human HIF-PHD2 (Homo sapiens, UniProt Q9GZT9)
T1 construct: purchased CrystalGenomics Ltd
Assay: HIF-PHD inhibition assay (fluorescence polarization), human HIF-PHD2
Type: biochemical
Details: 2-oxoglutaric acid 3.33 μmol/L
Description: (§1) The activity of the test compound to inhibit human HIF-PHD2 and human HIF-PHD3 was determined.
(§2) The value of enzyme activity was calculated by subtracting the value of fluorescence polarization before addition of the enzyme from the value of fluorescence polarization after addition of enzyme (mP value).
(§3) FAM: 5′-fluoresceinamide ACA: aminocaproic acid

T1 sequence (Q9GZT9 2-426 limits assumed): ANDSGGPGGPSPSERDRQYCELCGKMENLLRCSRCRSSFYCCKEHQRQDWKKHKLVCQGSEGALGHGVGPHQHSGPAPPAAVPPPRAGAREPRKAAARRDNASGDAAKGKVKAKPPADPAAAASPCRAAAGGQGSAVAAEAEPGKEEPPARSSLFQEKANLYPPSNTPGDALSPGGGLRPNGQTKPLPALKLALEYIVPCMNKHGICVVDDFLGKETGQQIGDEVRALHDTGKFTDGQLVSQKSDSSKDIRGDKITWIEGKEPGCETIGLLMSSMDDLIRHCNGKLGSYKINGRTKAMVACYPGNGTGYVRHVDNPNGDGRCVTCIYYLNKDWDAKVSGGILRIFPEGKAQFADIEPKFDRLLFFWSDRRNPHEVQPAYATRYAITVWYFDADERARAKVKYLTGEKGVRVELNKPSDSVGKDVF

Compound | IC50 [nM]
Cc1cc(C(C)n2ncc3nc(-n4cc(C(=O)O)cn4)nc(O)c32)ccc1F (single isomer, unassigned) [Example 302] | 50
Cc1nn([C@@H](C)c2ccc(F)cc2Cl)c2c(O)nc(-n3cc(C(=O)O)cn3)nc12 [Example 452] | 110
Cc1nn(CC2CCCC2)c2c(O)nc(-n3cc(C(=O)O)cn3)nc12 [Example 229] | 50
Cc1ccc(C(C2CC2)n2ncc3nc(-n4cc(C(=O)O)cn4)nc(O)c32)cc1 (stereo not drawn) [Example 368] | 72
CCC(c1ccc(Cl)cc1F)n1ncc2nc(-n3cc(C(=O)O)cn3)nc(O)c21 (stereo not drawn) [Example 350] | 49
C[C@@H]1C[C@H](C)C[C@@H](n2ncc3nc(-n4cc(C(=O)O)cn4)nc(O)c32)C1 [Example 402] | 24
C[C@H](c1ccc(Cl)c(F)c1)n1ncc2nc(-n3cc(C(=O)O)cn3)nc(O)c21 [Example 270] | 48
O=C(O)c1cnn(-c2nc(O)c3c(cnn3C(c3ccc(Cl)cc3)C3CC3)n2)c1 (single isomer, unassigned) [Example 365] | 12
Cn1ncc2nc(-n3cc(C(=O)O)cn3)nc(O)c21 [Example 485] | 140
CC1CCCC(n2ncc3nc(-n4cc(C(=O)O)cn4)nc(O)c32)C1 (stereo not drawn) [Example 398] | 52
CCC(c1ccc(Cl)c(C)c1)n1ncc2nc(-n3cc(C(=O)O)cn3)nc(O)c21 (single isomer, unassigned) [Example 347] | 38
Cc1cc(C)cc(C(C)n2ncc3nc(-n4cc(C(=O)O)cn4)nc(O)c32)c1 (single isomer, unassigned) [Example 310] | 57
O=C(O)c1cnn(-c2nc(O)c3c(cnn3C[C@@H]3CCN(c4ccc(C(F)(F)F)cc4)C3)n2)c1 [Example 426] | 15
Cc1ccc(C)c([C@H](C)n2ncc3nc(-n4cc(C(=O)O)cn4)nc(O)c32)c1 [Example 283] | 68
CC(C)[C@H]1CC[C@H](n2ncc3nc(-n4cc(C(=O)O)cn4)nc(O)c32)CC1 [Example 389] | 76
CCC(c1ccc(C)cc1)n1ncc2nc(-n3cc(C(=O)O)cn3)nc(O)c21 (single isomer, unassigned) [Example 329] | 120
CC(C)C(c1ccc(F)c(F)c1)n1ncc2nc(-n3cc(C(=O)O)cn3)nc(O)c21 (single isomer, unassigned) [Example 359] | 23
Cc1ccc(C(C)n2ncc3nc(-n4cc(C(=O)O)cn4)nc(O)c32)cc1 (single isomer, unassigned) [Example 292] | 39
Cc1ccc(C(C)n2ncc3nc(-n4cc(C(=O)O)cn4)nc(O)c32)cc1 (stereo not drawn) [Example 291] | 72
CC(c1ccc(Cl)c(C(F)(F)F)c1)n1ncc2nc(-n3cc(C(=O)O)cn3)nc(O)c21 (stereo not drawn) [Example 315] | 45
Cc1ccccc1[C@H](C)n1ncc2nc(-n3cc(C(=O)O)cn3)nc(O)c21 [Example 265] | 160
CC1CCCC(n2ncc3nc(-n4cc(C(=O)O)cn4)nc(O)c32)C1 (single isomer, unassigned) [Example 401] | 48
CC(C)[C@@H]1CC[C@@H](C)C[C@@H]1n1ncc2nc(-n3cc(C(=O)O)cn3)nc(O)c21 [Example 403] | 140
Cc1ccc(C(F)(F)F)cc1[C@H](C)n1ncc2nc(-n3cc(C(=O)O)cn3)nc(O)c21 [Example 286] | 96
CCC(c1ccc(F)c(Cl)c1)n1ncc2nc(-n3cc(C(=O)O)cn3)nc(O)c21 (single isomer, unassigned) [Example 338] | 28
C[C@@H](c1ccc(OC(F)(F)F)c(F)c1)n1ncc2nc(-n3cc(C(=O)O)cn3)nc(O)c21 [Example 317] | 19
O=C(O)c1cnn(-c2nc(O)c3c(cnn3C[C@H]3CCN(c4cccc(C(F)(F)F)c4)C3)n2)c1 [Example 429] | 22
CC(C)C(c1cccc(C(F)(F)F)c1)n1ncc2nc(-n3cc(C(=O)O)cn3)nc(O)c21 (stereo not drawn) [Example 362] | 100
C[C@@H](c1ccc(F)c(Cl)c1)n1ncc2nc(-n3cc(C(=O)O)cn3)nc(O)c21 [Example 250] | 49
C[C@@H](c1cc(Cl)cc(C(F)(F)F)c1)n1ncc2nc(-n3cc(C(=O)O)cn3)nc(O)c21 [Example 269] | 42

Biological target: T2, human HIF-PHD3 (Homo sapiens, UniProt Q9H6Z9)
T2 construct: purchased CrystalGenomics Ltd
T2 sequence (Q9H6Z9 whole entry): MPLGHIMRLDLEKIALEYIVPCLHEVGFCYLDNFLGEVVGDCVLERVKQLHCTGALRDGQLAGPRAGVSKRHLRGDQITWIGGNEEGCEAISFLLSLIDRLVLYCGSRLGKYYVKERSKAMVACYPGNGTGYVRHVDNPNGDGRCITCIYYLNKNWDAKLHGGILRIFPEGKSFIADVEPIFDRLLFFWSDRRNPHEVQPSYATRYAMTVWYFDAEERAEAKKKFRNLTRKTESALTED
Assay: HIF-PHD inhibition assay (fluorescence polarization), human HIF-PHD3
Type: biochemical
Details: 2-oxoglutaric acid 166 μmol/L
Description: as §1, §2, §3

Compound | IC50 [nM]
Cc1cc(C(C)n2ncc3nc(-n4cc(C(=O)O)cn4)nc(O)c32)ccc1F (single isomer, unassigned) [Example 302] | 570
Cc1nn([C@@H](C)c2ccc(F)cc2Cl)c2c(O)nc(-n3cc(C(=O)O)cn3)nc12 [Example 452] | 1600
Cc1nn(CC2CCCC2)c2c(O)nc(-n3cc(C(=O)O)cn3)nc12 [Example 229] | 2800
Cc1ccc(C(C2CC2)n2ncc3nc(-n4cc(C(=O)O)cn4)nc(O)c32)cc1 (stereo not drawn) [Example 368] | 410
CCC(c1ccc(Cl)cc1F)n1ncc2nc(-n3cc(C(=O)O)cn3)nc(O)c21 (stereo not drawn) [Example 350] | 530
C[C@@H]1C[C@H](C)C[C@@H](n2ncc3nc(-n4cc(C(=O)O)cn4)nc(O)c32)C1 [Example 402] | 710
C[C@H](c1ccc(Cl)c(F)c1)n1ncc2nc(-n3cc(C(=O)O)cn3)nc(O)c21 [Example 270] | 440
O=C(O)c1cnn(-c2nc(O)c3c(cnn3C(c3ccc(Cl)cc3)C3CC3)n2)c1 (single isomer, unassigned) [Example 365] | 460
Cn1ncc2nc(-n3cc(C(=O)O)cn3)nc(O)c21 [Example 485] | > 3000
CC1CCCC(n2ncc3nc(-n4cc(C(=O)O)cn4)nc(O)c32)C1 (stereo not drawn) [Example 398] | 1400
CCC(c1ccc(Cl)c(C)c1)n1ncc2nc(-n3cc(C(=O)O)cn3)nc(O)c21 (single isomer, unassigned) [Example 347] | 400
Cc1cc(C)cc(C(C)n2ncc3nc(-n4cc(C(=O)O)cn4)nc(O)c32)c1 (single isomer, unassigned) [Example 310] | 470
O=C(O)c1cnn(-c2nc(O)c3c(cnn3C[C@@H]3CCN(c4ccc(C(F)(F)F)cc4)C3)n2)c1 [Example 426] | 140
Cc1ccc(C)c([C@H](C)n2ncc3nc(-n4cc(C(=O)O)cn4)nc(O)c32)c1 [Example 283] | > 3000
CC(C)[C@H]1CC[C@H](n2ncc3nc(-n4cc(C(=O)O)cn4)nc(O)c32)CC1 [Example 389] | 790
CCC(c1ccc(C)cc1)n1ncc2nc(-n3cc(C(=O)O)cn3)nc(O)c21 (single isomer, unassigned) [Example 329] | 590
CC(C)C(c1ccc(F)c(F)c1)n1ncc2nc(-n3cc(C(=O)O)cn3)nc(O)c21 (single isomer, unassigned) [Example 359] | 340
Cc1ccc(C(C)n2ncc3nc(-n4cc(C(=O)O)cn4)nc(O)c32)cc1 (single isomer, unassigned) [Example 292] | 590
Cc1ccc(C(C)n2ncc3nc(-n4cc(C(=O)O)cn4)nc(O)c32)cc1 (stereo not drawn) [Example 291] | 730
CC(c1ccc(Cl)c(C(F)(F)F)c1)n1ncc2nc(-n3cc(C(=O)O)cn3)nc(O)c21 (stereo not drawn) [Example 315] | 880
Cc1ccccc1[C@H](C)n1ncc2nc(-n3cc(C(=O)O)cn3)nc(O)c21 [Example 265] | 780
CC1CCCC(n2ncc3nc(-n4cc(C(=O)O)cn4)nc(O)c32)C1 (single isomer, unassigned) [Example 401] | 1200
CC(C)[C@@H]1CC[C@@H](C)C[C@@H]1n1ncc2nc(-n3cc(C(=O)O)cn3)nc(O)c21 [Example 403] | 940
Cc1ccc(C(F)(F)F)cc1[C@H](C)n1ncc2nc(-n3cc(C(=O)O)cn3)nc(O)c21 [Example 286] | 820
CCC(c1ccc(F)c(Cl)c1)n1ncc2nc(-n3cc(C(=O)O)cn3)nc(O)c21 (single isomer, unassigned) [Example 338] | 420
C[C@@H](c1ccc(OC(F)(F)F)c(F)c1)n1ncc2nc(-n3cc(C(=O)O)cn3)nc(O)c21 [Example 317] | 520
O=C(O)c1cnn(-c2nc(O)c3c(cnn3C[C@H]3CCN(c4cccc(C(F)(F)F)c4)C3)n2)c1 [Example 429] | 540
CC(C)C(c1cccc(C(F)(F)F)c1)n1ncc2nc(-n3cc(C(=O)O)cn3)nc(O)c21 (stereo not drawn) [Example 362] | 1500
C[C@@H](c1ccc(F)c(Cl)c1)n1ncc2nc(-n3cc(C(=O)O)cn3)nc(O)c21 [Example 250] | 180
C[C@@H](c1cc(Cl)cc(C(F)(F)F)c1)n1ncc2nc(-n3cc(C(=O)O)cn3)nc(O)c21 [Example 269] | 370
